Reference: patent publication US20030220312A1, “Epoxy-steroidal aldosterone antagonist and calcium channel blocker combination therapy for treatment of cardiovascular disorders” (G.D. Searle & Co., priority 2000, published 2003)

Assays:
[1] = test system: patients with heart failure after an acute myocardial infarction; assay: Example 20 clinical study: eplerenone plus CCB in heart failure following acute myocardial infarction; type: in vivo, human; conditions: expected
Description: Secondary endpoints include cardiovascular morbidity and mortality. […] (a) pulmonary edema (bilateral posttussive crackles extending at least 1⁄3 of the way up the lung fields in the absence of significant chronic pulmonary disease); or (b) chest x-ray showing pulmonary venous congestion with interstitial or alveolar edema; or (c) auscultatory evidence of a third heart sound (S3) with persistent tachycardia (>100 beats per minute). Eligible patients may be identified for inclusion at any time following emergency room evaluation and presumptive diagnosis of AMI with HF. […] Patients with implanted cardiac defibrillators are excluded. Patients will receive CCB therapy and may have received anticoagulants and antiplatelet agents, and may have received thrombolytics or emergency angioplasty. […] Serum potassium will be determined at 48 hours after initiation of treatment, at 1 and 5 weeks, at all other scheduled study visits, and within one week following any dose change. […] Vital signs (seated heart rate and BP), New York Heart Association (NYHA) functional class, adverse events, and selected concurrent medications will be recorded at every visit. […]

[2] = test system: patients with mild to moderate hypertension; assay: Example 19 clinical study: eplerenone versus placebo co-administered with a calcium-channel blocker; type: in vivo, human
Description: This multicenter, randomized, double-blind, placebo-controlled, placebo run-in, parallel group trial involving a minimum of 120 randomized patients with hypertension (seated diastolic blood pressure [seDBP] ≧95 mmHg and <110 mmHg and seated systolic BP [seSBP] <180 mmHg while taking a CCB) will consist of a one- to two-week pretreatment screening period followed by a two- to four-week single-blind placebo run-in period and an 8-week double-blind treatment period. Eligible patients will be patients currently receiving a CCB as part of their antihypertensive medication. […] The dose will not be changed for patients with adequate BP control. […] If the dose has been increased at Week 2, the patient will be reassessed at Week 6. […] If BP is uncontrolled at Week 6 and the dose has been increased at Week 2 or Week 4, the patient must be withdrawn from the study. If symptomatic hypotension (i.e., lightheadedness, dizziness, or syncope associated with low BP) occurs at any time during the study, or if DBP is ≧110 mmHg or SBP is ≧180 mmHg at any time during the trial, the patient must be withdrawn. Patients will receive study medication for a total of 8 weeks.
Patients will return to the clinic for evaluations at Weeks 0 (baseline), 2, 4, 6, 8, and 9. Heart rate, BP, adverse events and concomitant medication will be assessed at each visit. Hematology and biochemistry evaluations and urinalysis for safety will be at Weeks 0, 8, and 9. Serum potassium levels will be determined at Weeks 0 (baseline), 2, 4, 6, 8, and 9. Plasma renin, serum aldosterone, and plasma cortisol will be determined at Weeks 0 and 8. A 12-lead electrocardiogram and physical examination will be done at screening and at Week 9.
The study will consist of a one- to two-week pretreatment screening period followed by a two- to four-week single-blind placebo run-in treatment period, prior to randomization to an eight-week double-blind treatment period.
Eligible patients will be either currently receiving a CCB alone, or receiving a CCB as part of their antihypertensive medication. […] The dose will not be changed for patients with adequate BP control. […] If the dose has been increased at Week 2, the patient will be reassessed at Week 6. The dose of study medication will not be changed for patients with adequate BP control. […] If BP is uncontrolled at Week 6 and the dose has been increased at Week 2 or Week 4, the patient must be withdrawn from the study. The dose of study medication will not be changed for patients with adequate BP control. If symptomatic hypotension (i.e., lightheadedness, dizziness, or syncope associated with low BP) occurs at any time during the study, or if DBP is ≧110 mmHg or SBP is ≧180 mmHg at any time during the study, the patient must be withdrawn. Patients will receive study medication for a total of eight weeks.
Patients will return to the clinic for evaluations at Weeks 0, 2, 4, 6, 8, and 9. Heart rate, BP, adverse events and concomitant medication will be assessed at each visit. Hematology and biochemistry evaluations and urinalysis for safety will be at Weeks 0, 8, and 9. Serum potassium levels will be determined at Weeks 0, 2, 4, 6, 8, and 9. Plasma renin, serum aldosterone, and plasma cortisol will be determined at Weeks 0 and 8. […]
BP evaluations will be analyzed at each visit using two-way analysis of covariance (ANCOVA) with the baseline measurement as the covariate and treatment and center as factors. […]

[3] = test system: rats with myocardial infarction; assay: Assay D: Myocardial Infarction Rat Model (coronary ligation); type: in vivo; conditions: combination of calcium channel blocker and eplerenone versus either component alone, six weeks, expected
Procedure: Assay “D”: Myocardial Infarction Rat Model: Male rats are anesthetized and the heart is exteriorized following a left sided thoracotomy. The left anterior descending coronary artery is ligated with a suture. The thorax is closed and the animal recovers. Sham animals have the suture passed through without ligation. One week prior to the surgery, animals to undergo infarction are divided into separate groups and drug treatment is begun. Groups of animals are administered vehicle, calcium channel blocker alone, eplerenone alone, and combinations of calcium channel blocker and eplerenone, at various doses, as follow: After six weeks, systolic and diastolic blood pressure, left ventricular end diastolic pressure, left ventricular dP/dT, and heart rate are evaluated. The hearts are removed, weighed, measured and fixed in formalin. Collagen content of heart sections are evaluated using computerized image analysis of picrosirius stained sections.

[4] = Form H content of the Form H seeding product by DSC; type: physicochemical; conditions: cooling rate (0) 1.5° C./min, cooling endpoint (0) 25° C., 100.8% eplerenone seeded with Form H
Description: The X-ray powder diffraction model, however, had not been tested for linearity beyond about 15% Form H. This experiment was the only one of the four experiments of this Example where Form H was created in the absence of the diepoxide.

[5] = X-ray powder diffraction estimate of Form H content of dried solids; type: physicochemical; conditions: for Estimated Weight Percent of Form H: dried solids from methyl ethyl ketone crystallization
Procedure: The weight percent of the diepoxide or 11,12-epoxide in each sample is given in Tables X-6A and X-6B, respectively. A micro-flea magnetic stirrer was added to each scintillation vial along with 1 mL of methyl ethyl ketone. The vials were loosely capped and the solid dissolved by heating to reflux on a hot plate with magnetic stirring. Once the solids were dissolved, the solutions were allowed to cool to room temperature on the hot plate. Magnetic stirring was maintained during the cooling period. After the solutions reached room temperature, the solids were collected by vacuum filtration and immediately analyzed by X-ray powder diffraction (XPRD). The solids were then placed in a 100° C. oven and dried for one hour at ambient pressure. The dried solids were analyzed by XPRD for Form H content by monitoring the area of the Form H diffraction peak at about 12.1 degrees two theta. All XPRD diffraction patterns were recorded using an Inel Multipurpose Diffractometer.
Variables in the design of the experiments included cooling rate, starting material purity level, and end point temperature of crystallization.
High endpoint was defined as 45° C. and low endpoint was defined as 5° C. High cooling rate was defined as 3° C./minute cooling and low cooling rate was defined as 0.1° C./minute cooling.
After a background reading was taken with the FTIR, 250 mL of methyl ethyl ketone was charged to a 1 L Mettler RC-1, MP10 reactor and stirred at 100 rpm. […] Agitation was increased to 500 rpm to suspend solids and the batch temperature was increased to 80° C. […] Black or white specks generally were visible in the resulting transparent solution. The batch temperature was then ramp cooled at the desired rate to the desired endpoint, where it was maintained for one hour before being pulled into a transfer flask and filtered. […] reactor, transfer flask and cake were then washed with 120 mL methyl ethyl ketone. Once the wash was pulled through the cake, the stopped. About 10 grams of each wet cake were dried in a vacuum oven under nominal conditions of 75° C. with a light nitrogen bleed. […]

hypertensive rats = assay: Assay C: Hypertensive Rat Model (renal artery clip); type: in vivo; conditions: combination of calcium channel blocker and eplerenone versus either component alone, 12 to 24 weeks, expected
Description: Assay “C”: Hypertensive Rat Model Male rats are made hypertensive by placing a silver clip with an aperture of 240 microns on the left renal artery, leaving the contralateral kidney untouched. Sham controls undergo the-same procedure but without attachment of the clip. One week prior to the surgery, animals to be made hypertensive are divided into separate groups and drug treatment is begun. […] The hearts are removed, weighed, measured and fixed in formalin. Collagen content of heart sections are evaluated using computerized image analysis of picrosirius stained sections.

[6] = Thermogravimetry / DSC of eplerenone solvates (desolvation); type: physicochemical; conditions: eplerenone solvate of the named solvent; extrapolated from final solvent weight loss step, thermogravimetric analysis at 10° C./minute under nitrogen purge
Procedure: Each sample (1-10 mg) was placed in an unsealed aluminum pan and heated at 10° C./minute.
Thermogravimetric analysis of solvates was performed using a TA Instruments TGA 2950 thermogravimetric analyzer. Samples were placed in an unsealed aluminum pan under nitrogen purge. Starting temperature was 25° C. with the temperature increased at a rate of about 10° C./minute.

[7] = test system: myocardial fibrosis in animal models; conditions: literature (Klug et al; Brilla et al); cited from earlier work
[8] = CCB and eplerenone compared to CCB and placebo, Week 8
[9] = eplerenone 50-100 mg plus CCB versus CCB and placebo, eight weeks, hypertensive patients

Compound	Desolvation Temperature [6] [°C]	other results
COC(=O)[C@@H]1CC2=CC(=O)CC[C@]2(C)[C@@]23O[C@@H]2C[C@@]2(C)[C@@H](CC[C@@]24CCC(=O)O4)[C@H]13 [eplerenone, pregn-4-ene-7,21-dicarboxylic acid, 9,11-epoxy-17-hydroxy-3-oxo, γ-lactone, methyl ester, (7α,11α,17α)-]		all cause mortality (primary end point) ([1]; eplerenone plus CCB relative to CCB alone): Improvement; secondary end points (cardiovascular mortality, hospitalizations, atrial fibrillation, stroke, quality of life) ([1]; eplerenone plus CCB versus CCB alone): Beneficial effects; change in active renin levels [2, 8]: greater increase; change in aldosterone levels [2, 8]: greater increase; change in mean diastolic blood pressure [2, 9]: greater for the dual therapy group, compared to monotherapy, but this difference did not reach statistical significance; change in systolic blood pressure [2, 9]: significant reduction; serious adverse events ([2]; eplerenone added to CCB therapy, eight weeks): no serious adverse events; cardiac performance [3]: improvements in cardiac performance; Weight Percent Form H when analyzed by DSC [4]: 100 Weight Percent; Weight Percent Form H (XPRD) ([5]; cooling rate (+) 3° C./min, cooling endpoint (+) 45° C., impurity level (++) 61.1% purity eplerenone starting material, appears to be mixture of Form H and diepoxide): 100^5 Weight Percent; Estimated Weight Percent of Form H ([5]; 0% diepoxide in starting eplerenone mixture): None; Estimated Weight Percent of Form H ([5]; 1% diepoxide in starting eplerenone mixture): None; cardiac performance (hypertensive rats): improvements in cardiac performance
CCCCO [n-Butanol]	103	
CCCCCCCCO [n-Octanol]	116	
CC(=O)S[C@@H]1CC2=CC(=O)CC[C@]2(C)[C@H]2CC[C@@]3(C)[C@@H](CC[C@@]34CCC(=O)O4)[C@H]12 [spironolactone]		myocardial fibrosis [7]: prevents myocardial fibrosis
Acetone	117	
Butyl Acetate	108	
Chloroform	125	
Ethanol	166	
Ethyl Propionate	122	
Isobutyl Acetate	112	
Isopropanol	121	
Methyl Acetate	103	
Methyl Ethyl Ketone	89	
Propyl Acetate	130	
Propylene Glycol	188	
Tetrahydrofuran	136	
Toluene	83	
t-Butyl Acetate	109	
